Source: US20160051579A1, “NITRIC OXIDE TREATMENT OF BOVINE RESPIRATORY DISEASE COMPLEX AND OTHER RESPIRATORY CONDITIONS” (Bovicor Pharmatech, Inc., priority 2014, published 2016)
“Also recorded” adds a separate entry of the source.

Key:
[1] = cited from earlier work
[2] = Commercial feedlot trial NORS vs Micotil: weight gain; format: in vivo, beef calves
Protocol: (§1) NORS was delivered with a spray device specifically designed for the study. […] Animals in the control cohort received an injection of Micotil® of 2 mL/100 lb.
During the follow-up period (day 35 to day 60), relapses requiring antibiotic intervention were recorded as part of the normal feedlot routine. At day 150, all animals were assessed for average daily weight gain and recorded.
In order to evaluate the effect of treatment on 35-day weight change, a linear mixed effects model was fit to the data. Specifically, the effect of treatment on weight change was evaluated while controlling for baseline weight (fixed effect) and pen (random effect). Confidence intervals are based on the linear mixed effects model and account for the possibility of correlation of animals grouped together within the same pen.

BRDc = experiment: Commercial feedlot trial NORS vs Micotil: BRDc incidence, relapse, mortality; format: in vivo, beef calves
Description: Commingled, multi-sourced, mixed-breed beef calves were purchased from auction markets for these studies. […] Animals identified for the study were to be approximately 6 months old with an estimated initial mean body weight of between 400-600 lbs. All animals were transported via commercial cattle liners to the feedlot. […] After a 24-hour acclimatization period, the calves were screened, enrolled, randomized, processed, weighed, and temperature measured with blood samples taken by a veterinarian.
as §1
Animals identified by the pen keepers as appearing to be sick were “pulled” and brought into a barn. The animal was then placed in a catch chute and assessed by a veterinarian, who was blinded to the study, and assigned a clinical score to each animal.
BRDc was diagnosed as positive based on temperature greater than 103.5° F. and a clinical pulmonary score of 3 or greater.
At day 150, all animals were assessed for average daily weight gain and recorded.
Animals that died during the first 35 days of the study, for any reason, were sent for pathology testing (done by a board certified, blinded, veterinary pathologist). The following sections were tested: Lungs (left anterior, left middle, left caudal, right anterior, right middle, right caudal), heart, nasal mucosa, pharynx, Retropharyngeal L.N. and trachea. Diagnosis for the cause of death was determined by the pathologist.
Deaths of animals from day 35 to 150 were recorded and the farm's pathologist identified the cause of death.
In order to evaluate the difference in BRDc positive rates between NORS and Micotil® treated animals, a non-inferiority analysis was conducted. Specifically, the null hypothesis that the BRDc positive rate in the Bovinex group (pB) is more than 7.5% higher than the rate in the Micotil® group (pM) was tested using a nonparametric bootstrap: • H0: pB−pM≧7.5% • vs. • H1: pB−pM<7.5%

[3] = system: Trichophyton mentagrophytes; experiment: Antifungal efficacy of NORS, mycelial viability; format: cell-based; settings: 0.14% sodium nitrite (pH 6) or citric acid at pH 3.7 alone, 30-minute exposure
Trichophyton rubrum = experiment: Antifungal efficacy of NORS, mycelial viability; format: cell-based; settings: 0.14% sodium nitrite (pH 6) or citric acid at pH 3.7 alone, 30-minute exposure
[4] = in vivo; cited from earlier work

SMILES: [N]=O [NO, Nitric Oxide]
- half-life in the body [1]: less than 6 s

SMILES: CC[C@H]1OC(=O)C[C@@H](O)[C@H](C)[C@@H](O[C@@H]2O[C@H](C)[C@@H](O)[C@H](N(C)C)[C@H]2O)[C@@H](CCN2C[C@H](C)C[C@H](C)C2)C[C@@H](C)C(=O)/C=C/C(C)=C/[C@@H]1CO[C@@H]1O[C@H](C)[C@@H](O)[C@@H](OC)[C@H]1OC [antibiotic, tilmicosin]
- average daily gain ([2]; 35 days): 2.0 lbs/day
- average 35-day weight gain ([2]; baseline weight of 554 lbs): 70 lbs
- average daily gain ([2]; day 150): 2.61 lbs
- average gain ([2]; day 150): 392 lbs
- additional weight gain relative to those treated with NORS ([2]; over 35 days): 5.5 lbs
- # of BRDc positive animals (BRDc; Pen B2): 1
- % of BRDc positive animals (BRDc; Pen B2): 0.7%
- # of BRDc positive animals (BRDc; Pen B6): 5
- % of BRDc positive animals (BRDc; Pen B6): 3.7%
- # of BRDc positive animals (BRDc; Pen C3): 3
- % of BRDc positive animals (BRDc; Pen C3): 2.2%
- # of BRDc positive animals (BRDc; Pen C7): 8
- % of BRDc positive animals (BRDc; Pen C7): 6.2%
- BRDc related deaths as diagnosed by the feedlot (BRDc; day 35-150): 3
- animals that died (BRDc; day 35-150): 12
- animals that died (BRDc; during the 35 days of the study): 8
- animals pulled for suspected illness (BRDc; first 35 days): Thirty-three
- number of relapses (BRDc; followed until day 150): 10
- # of BRDc positive animals (BRDc; total of cohort, 35 days): 17
- % of BRDc positive animals (BRDc; total of cohort, 35 days): 3.2%

SMILES: O=NO [sodium nitrite]
- effect of single component on mycelial growth [3]: Minimal to no effect
- effect of single component on mycelial growth ([3]; listed as nitrites): no significant effect
- effect of single component on mycelial growth (Trichophyton rubrum): Minimal to no effect
- effect of single component on mycelial growth (Trichophyton rubrum; listed as nitrites): no significant effect

SMILES: O=C(O)CC(O)(CC(=O)O)C(=O)O [citric acid]
- effect of single component on mycelial growth [3]: Minimal to no effect; also recorded: no significant effect
- effect of single component on mycelial growth (Trichophyton rubrum): Minimal to no effect; also recorded: no significant effect

SMILES: CCCNC[C@]1(O)[C@H](C)O[C@@H](O[C@H]2[C@H](C)[C@@H](O[C@@H]3O[C@H](C)C[C@H](N(C)C)[C@H]3O)[C@](C)(O)C[C@@H](C)CN[C@H](C)[C@@H](O)[C@](C)(O)[C@@H](CC)OC(=O)[C@@H]2C)C[C@@]1(C)OC [tulathromycin]
- time remaining in the pulmonary system [4]: ≤ 28 days
